Reference: ChEMBL document CHEMBL1157840, “Synthesis and the selective antifungal activity of 5,6,7,8-tetrahydroimidazo[1,2-a]pyridine derivatives” (Eur J Med Chem, 2010)
≈ marks a conversion by molar mass, not a printed value.

Assays:
[1] = test system: Candida parapsilosis; assay: Antifungal activity against Candida parapsilosis NRRL Y-12696 after 24 hrs by broth microdilution assay; assay type: functional; settings: Lodderomyces parapsilosis, NRRL Y-12696, 24 h
[2] = Cytotoxicity against african pig LLC-PK11 up to 25 ug/ml after 48 hrs by neutral red assay; design: species or system Sus scrofa
[3] = test system: BT-549; assay: Cytotoxicity against human BT549 cells up to 25 ug/ml after 48 hrs by neutral red assay; assay type: cell-based; settings: bt-549, 48 h
[4] = test system: Nakaseomyces glabratus; assay: Antifungal activity against Candida glabrata clinical isolate 1 after 24 hrs by broth microdilution assay; assay type: functional; settings: isolate 1, 24 h
[5] = test system: Cyberlindnera jadinii; assay: Antifungal activity against Candida utilis NRRL Y-900 after 24 hrs by broth microdilution assay; assay type: functional; settings: Williopsis jadinii, NRRL Y-900, 24 h
[6] = test system: Vero; assay: Cytotoxicity against african green monkey Vero cells up to 25 ug/ml after 48 hrs by neutral red assay; assay type: cell-based; settings: chlorocebus sabaeus
[7] = test system: Candida albicans; assay: Antifungal activity against Candida albicans NRRL Y-12983 after 24 hrs by broth microdilution assay; assay type: functional; settings: NRRL Y-12983, 24 h
[8] = test system: Nakaseomyces glabratus; assay: Antifungal activity against Candida glabrata clinical isolate 2 after 24 hrs by broth microdilution assay; assay type: functional
[9] = test system: [Candida] zeylanoides; assay: Antifungal activity against Candida zeylanoides NRRL Y-1774 after 24 hrs by broth microdilution assay; assay type: functional; settings: Dujonia zeylanoides, NRRL Y-1774, 24 h
[10] = test system: Candida albicans; assay: Antifungal activity against Candida albicans clinical isolate after 24 hrs by broth microdilution assay; assay type: functional
[11] = test system: Candida tropicalis; assay: Antifungal activity against Candida tropicalis NRRL Y-12968 after 24 hrs by broth microdilution assay; assay type: functional; settings: NRRL Y-12968, 24 h
[12] = test system: Candida albicans; assay: Antifungal activity against Candida albicans ATCC 90028 after 24 hrs by broth microdilution assay; assay type: functional; settings: ATCC 90028, 24 h
[13] = test system: SK-OV-3; assay: Cytotoxicity against human SKOV3 cells up to 25 ug/ml after 48 hrs by neutral red assay; assay type: cell-based; settings: sk-ov-3, 48 h
[14] = test system: SK-MEL; assay: Cytotoxicity against human SK-MEL cells up to 25 ug/ml after 48 hrs by neutral red assay; assay type: cell-based
[15] = test system: Pichia kudriavzevii; assay: Antifungal activity against Candida krusei NRRL Y-7179 after 24 hrs by broth microdilution assay; assay type: functional; settings: NRRL Y-7179, 24 h

SMILES | MIC [1] | MIC [4] | MIC [5] | MIC [7] | MIC [8] | MIC [9] | MIC [10] | MIC [11] | MIC [12] | MIC [15] | Activity [2] | Activity [3] | Activity [6] | Activity [13] | Activity [14]
CC(=O)N1CCN(c2ccc(OCC3COC(Cn4ccnc4)(c4ccc(Cl)cc4Cl)O3)cc2)CC1 (stereo not drawn) [KETOCONAZOLE] | 0.032 µg/mL (≈ 0.0602 µM) | 0.125 µg/mL (≈ 0.235 µM) | 0.125 µg/mL (≈ 0.235 µM) | 0.032 µg/mL (≈ 0.0602 µM) | 0.032 µg/mL (≈ 0.0602 µM) | 0.5 µg/mL (≈ 0.941 µM) | 0.063 µg/mL (≈ 0.119 µM) | 0.125 µg/mL (≈ 0.235 µM) | 0.063 µg/mL (≈ 0.119 µM) | 0.125 µg/mL (≈ 0.235 µM) | Non-toxic | Non-toxic | Non-toxic | Non-toxic | Non-toxic
O=C(N/N=C/c1ccc([N+](=O)[O-])cc1)c1cn2c(n1)CCCC2 | 0.25 µg/mL (≈ 0.798 µM) | 0.5 µg/mL (≈ 1.6 µM) | 0.5 µg/mL (≈ 1.6 µM) | 0.25 µg/mL (≈ 0.798 µM) | 0.25 µg/mL (≈ 0.798 µM) | 0.25 µg/mL (≈ 0.798 µM) | 0.125 µg/mL (≈ 0.399 µM) | 0.25 µg/mL (≈ 0.798 µM) | 0.5 µg/mL (≈ 1.6 µM) | 0.5 µg/mL (≈ 1.6 µM) | Non-toxic | Non-toxic | Non-toxic | Non-toxic | Non-toxic
COC1=CC(=O)C[C@@H](C)[C@]12Oc1c(Cl)c(OC)cc(OC)c1C2=O [GRISEOFULVIN] | 0.5 µg/mL (≈ 1.42 µM) | 0.25 µg/mL (≈ 0.709 µM) | 0.5 µg/mL (≈ 1.42 µM) | – | 0.125 µg/mL (≈ 0.354 µM) | 0.5 µg/mL (≈ 1.42 µM) | 0.25 µg/mL (≈ 0.709 µM) | 0.125 µg/mL (≈ 0.354 µM) | – | 0.25 µg/mL (≈ 0.709 µM) | Non-toxic | Non-toxic | Non-toxic | Non-toxic | Non-toxic
O=C(N/N=C/c1ccc2c(c1)OCO2)c1cn2c(n1)CCCC2 | > 0.25 µg/mL | > 0.25 µg/mL | 0.125 µg/mL (≈ 0.4 µM) | > 0.25 µg/mL | > 0.25 µg/mL | > 0.25 µg/mL | 0.063 µg/mL (≈ 0.202 µM) | 0.125 µg/mL (≈ 0.4 µM) | > 0.25 µg/mL | > 0.25 µg/mL | Non-toxic | Non-toxic | Non-toxic | Non-toxic | Non-toxic
Clc1ccccc1C(c1ccccc1)(c1ccccc1)n1ccnc1 [CLOTRIMAZOLE] | < 0.08 µg/mL | < 0.08 µg/mL | < 0.08 µg/mL | < 0.08 µg/mL | < 0.08 µg/mL | 0.125 µg/mL (≈ 0.362 µM) | < 0.08 µg/mL | 0.032 µg/mL (≈ 0.0928 µM) | < 0.08 µg/mL | < 0.08 µg/mL | Non-toxic | Non-toxic | Non-toxic | Non-toxic | Non-toxic

Now from value to molecule, other results behind:

MIC [1] | MIC [4] | MIC [5] | MIC [7] | MIC [8] | MIC [9] | MIC [10] | MIC [11] | MIC [12] | MIC [15] | SMILES | Activity [2] | Activity [3] | Activity [6] | Activity [13] | Activity [14]
1 µg/mL (≈ 2.88 µM) | 0.5 µg/mL (≈ 1.44 µM) | 1 µg/mL (≈ 2.88 µM) | 0.125 µg/mL (≈ 0.36 µM) | 0.25 µg/mL (≈ 0.72 µM) | 1 µg/mL (≈ 2.88 µM) | 1 µg/mL (≈ 2.88 µM) | 0.5 µg/mL (≈ 1.44 µM) | 0.5 µg/mL (≈ 1.44 µM) | 0.25 µg/mL (≈ 0.72 µM) | O=C(N/N=C/c1ccc(Br)cc1)c1cn2c(n1)CCCC2 | Non-toxic | Non-toxic | Non-toxic | Non-toxic | Non-toxic
0.5 µg/mL (≈ 1.65 µM) | > 0.25 µg/mL | > 0.25 µg/mL | 0.5 µg/mL (≈ 1.65 µM) | 0.125 µg/mL (≈ 0.413 µM) | > 0.25 µg/mL | 0.125 µg/mL (≈ 0.413 µM) | > 0.25 µg/mL | 0.5 µg/mL (≈ 1.65 µM) | > 0.25 µg/mL | O=C(N/N=C/c1ccc(Cl)cc1)c1cn2c(n1)CCCC2 | Non-toxic | Non-toxic | Non-toxic | Non-toxic | Non-toxic
0.5 µg/mL (≈ 1.77 µM) | > 0.25 µg/mL | > 0.25 µg/mL | > 0.25 µg/mL | > 0.25 µg/mL | > 0.25 µg/mL | 0.032 µg/mL (≈ 0.113 µM) | 0.125 µg/mL (≈ 0.443 µM) | > 0.25 µg/mL | > 0.25 µg/mL | Cc1ccc(/C=N/NC(=O)c2cn3c(n2)CCCC3)cc1 | Non-toxic | Non-toxic | Non-toxic | Non-toxic | Non-toxic
> 0.25 µg/mL | > 0.25 µg/mL | > 0.25 µg/mL | > 0.25 µg/mL | 0.5 µg/mL (≈ 1.61 µM) | > 0.25 µg/mL | 0.125 µg/mL (≈ 0.403 µM) | 0.125 µg/mL (≈ 0.403 µM) | > 0.25 µg/mL | > 0.25 µg/mL | CC(C)c1ccc(/C=N/NC(=O)c2cn3c(n2)CCCC3)cc1 | Non-toxic | Non-toxic | Non-toxic | Non-toxic | Non-toxic
0.032 µg/mL (≈ 0.109 µM) | 0.032 µg/mL (≈ 0.109 µM) | 0.032 µg/mL (≈ 0.109 µM) | 0.032 µg/mL (≈ 0.109 µM) | 0.032 µg/mL (≈ 0.109 µM) | 0.032 µg/mL (≈ 0.109 µM) | 0.032 µg/mL (≈ 0.109 µM) | < 0.016 µg/mL | 0.063 µg/mL (≈ 0.215 µM) | < 0.016 µg/mL | N#Cc1ccc(/C=N/NC(=O)c2cn3c(n2)CCCC3)cc1 | Non-toxic | Non-toxic | Non-toxic | Non-toxic | Non-toxic
> 0.25 µg/mL | > 0.25 µg/mL | > 0.25 µg/mL | > 0.25 µg/mL | > 0.25 µg/mL | > 0.25 µg/mL | 0.125 µg/mL (≈ 0.401 µM) | 0.125 µg/mL (≈ 0.401 µM) | > 0.25 µg/mL | > 0.25 µg/mL | CN(C)c1ccc(/C=N/NC(=O)c2cn3c(n2)CCCC3)cc1 | Non-toxic | Non-toxic | Non-toxic | Non-toxic | Non-toxic
